Experimental data from patent publication US7078565B2, “Benzamide derivatives as antagonists of orexin receptors” (SmithKline Beecham plc, priority 2001, dated 2006).

Assays:
rat = experiment: Rat sleep/EEG studies; type: in vivo; settings: central administration at the onset of the normal sleep period; at the expense of paradoxical sleep and slow wave sleep 2
Excerpt: Therefore antagonists of its receptors may be useful in the treatment of sleep disorders including insomnia.

freely-feeding rats = settings: central administration, 4 hour time period; cited from earlier work

**Q.** With “orexin-A: peptide ligand for the orexin-1 receptor, an agonist of the orexin receptors; sequence given in b81 (QPLPDCCRQKTCSCRLYELLHGAGNHAAGILTL; not fully specified; Orexin-A; UniProt O43612 34-66, looked up)” as the substance, how does the arousal (rat) read?
**A.** dose-related increase in arousal

**Q.** What about the “increase in food intake over control rats receiving vehicle” value (freely-feeding rats) of the same substance?
**A.** approximately four-fold
